Source: patent US9447015B1, “(S)-2′-vinyl-abscisic acid derivatives” (Valent BioSciences Corporation, priority 2015, dated 2016)

Tested on: Arabidopsis thaliana seed germination
Assay: Arabidopsis seed germination assay (promotion of germination in the presence of (S)-ABA)
Type: in vivo
Parameters: key to Rating: Arabidopsis seed germination promotion activity: −: Seeds germinated at approximately the same time as those treated with 0.3 ppm of (S)-ABA alone (i.e., treatment with the 2′-vinyl-(S)-ABA derivative showed no measurable effect in this assay configuration).; +: Seeds germinated 1 to 4 days earlier than those treated with 0.3 ppm of (S)-ABA alone.; ++: Seeds germinated 5 to 7 days earlier than those treated with 0.3 ppm of (S)-ABA alone.; +++: Seeds germinated 8 to 10 days earlier than those treated with 0.3 ppm of (S)-ABA alone
Settings: for Rating: Arabidopsis seed germination promotion activity: 30 ppm compound in the presence of 0.3 ppm (S)-ABA, scored on day 14; for antagonist nature compared to (S)-ABA: seed germination assay, 30 ppm with 0.3 ppm (S)-ABA
Experimental: To determine whether the (S)-ABA derivatives of the present invention were effective antagonists, germination assays were performed with the model plant Arabidopsis thaliana. If the compounds are found to be antagonists, they may be useful to counter any undesirable side effects of (S)-ABA.
Arabidopsis seed was sterilized by shaking for five minutes in 200 proof ethanol, followed by shaking for five minutes in a 10% bleach solution. The seeds were then washed five times in sterile, distilled, de-ionized water and suspended in 0.1% phytoagar. The tubes containing the seeds were wrapped in aluminum foil and stratified at 4° C. for two days.
All compounds were tested at a concentration of 30 ppm in the presence or absence of 0.3 ppm (S)-ABA, in 24-well plates. For each compound, a 1000 ppm stock solution was prepared in distilled, deionized water containing 5% DMSO. The stock test solution (15 μL) was added to each well, plus or minus 1.5 μL of 100 ppm (S)-ABA in 5% DMSO. Appropriate amounts of distilled, de-ionized water was added to equalize volumes, and 450 μL of ½×Murashige and Skoog media containing 1.2% Bactoagar was then added to each well (final DMSO concentration was 0.5%). When the media solidified, ten to 15 sterile stratified Arabidopsis seeds were distributed into each well using a repeat pipettor. The plates were sealed with surgical tape and placed in a growth chamber running diurnal cycles of 12 hours of light at 24° C. and 12 hours of darkness at 19° C. The plates were scanned on days 3 through 14, and scored on day 14. The (S)-2′-vinyl-substituted ABA derivatives were scored on ability to promote germination in the presence of (S)-ABA. The results are summarized below in “Table 1: Arabidopsis seed germination promotion activity of 2′-vinyl-(S)-ABA derivatives.”

| Compound | Rating: Arabidopsis seed germination promotion activity | antagonist nature compared to (S)-ABA |
| --- | --- | --- |
| CC1=CC(=O)CC(C)(C)[C@@]1(O)/C=C/C(C)=C/C(=O)O [(S)-ABA, (S)-abscisic acid, reference compound] | − |  |
| CC(=C/C(=O)O)/C=C/[C@@]1(O)C(/C=C/c2cc(C(F)(F)F)ccc2Cl)=CC(=O)CC1(C)C [Compound 1] | ++ (Seeds germinated 5 to 7 days earlier than those treated with 0.3 ppm of (S)-ABA alone.) |  |
| CC(=C/C(=O)O)/C=C/[C@@]1(O)C(/C=C/c2ccc(F)cc2)=CC(=O)CC1(C)C [Compound 2] | + (Seeds germinated 1 to 4 days earlier than those treated with 0.3 ppm of (S)-ABA alone.) |  |
| CC(=C/C(=O)O)/C=C/[C@@]1(O)C(/C=C/c2ccc(C#N)cc2)=CC(=O)CC1(C)C [Compound 3] | ++ (Seeds germinated 5 to 7 days earlier than those treated with 0.3 ppm of (S)-ABA alone.) |  |
| CC(=C/C(=O)O)/C=C/[C@@]1(O)C(/C=C/c2ccc(C)cc2)=CC(=O)CC1(C)C [Compound 4] | +++ (Seeds germinated 8 to 10 days earlier than those treated with 0.3 ppm of (S)-ABA alone.) | antagonists of (S)-ABA |
| CC(=C/C(=O)O)/C=C/[C@@]1(O)C(/C=C/c2c(Cl)cccc2Cl)=CC(=O)CC1(C)C [Compound 5] | − |  |
| CC(=C/C(=O)O)/C=C/[C@@]1(O)C(/C=C/c2c(F)cccc2F)=CC(=O)CC1(C)C [Compound 6] | − |  |
| CC(=C/C(=O)O)/C=C/[C@@]1(O)C(/C=C/c2c(F)cccc2Cl)=CC(=O)CC1(C)C [Compound 7] | ++ (Seeds germinated 5 to 7 days earlier than those treated with 0.3 ppm of (S)-ABA alone.) |  |
| CC(=C/C(=O)O)/C=C/[C@@]1(O)C(/C=C/c2ccc(F)c(Cl)c2)=CC(=O)CC1(C)C [Compound 8] | +++ (Seeds germinated 8 to 10 days earlier than those treated with 0.3 ppm of (S)-ABA alone.) | antagonists of (S)-ABA |
| COC(=O)/C=C(C)\C=C\[C@@]1(O)C(/C=C/c2ccc(Cl)c(F)c2)CC(=O)CC1(C)C (stereo partly shown) [Compound 9] | ++ (Seeds germinated 5 to 7 days earlier than those treated with 0.3 ppm of (S)-ABA alone.) |  |
| COC(=O)/C=C(C)\C=C\[C@@]1(O)C(/C=C/c2ccccc2F)=CC(=O)CC1(C)C [Compound 10] | − |  |
| COC(=O)/C=C(C)\C=C\[C@@]1(O)C(/C=C/c2ccc(OC)c(C#N)c2)=CC(=O)CC1(C)C [Compound 11] | − |  |
| COC(=O)/C=C(C)\C=C\[C@@]1(O)C(/C=C/c2ccccc2Cl)=CC(=O)CC1(C)C [Compound 12] | + (Seeds germinated 1 to 4 days earlier than those treated with 0.3 ppm of (S)-ABA alone.) |  |
| COC(=O)/C=C(C)\C=C\[C@@]1(O)C(/C=C/c2cccc(C(F)(F)F)c2Cl)=CC(=O)CC1(C)C [Compound 13] | + (Seeds germinated 1 to 4 days earlier than those treated with 0.3 ppm of (S)-ABA alone.) |  |
| COC(=O)/C=C(C)\C=C\[C@@]1(O)C(/C=C/c2ccc(Cl)c(C(F)(F)F)c2)=CC(=O)CC1(C)C [Compound 14] | ++ (Seeds germinated 5 to 7 days earlier than those treated with 0.3 ppm of (S)-ABA alone.) |  |
| COC(=O)/C=C(C)\C=C\[C@@]1(O)C(/C=C/c2ccc(Cl)cc2Cl)=CC(=O)CC1(C)C [Compound 15] | ++ (Seeds germinated 5 to 7 days earlier than those treated with 0.3 ppm of (S)-ABA alone.) |  |
| CC(=C/C(=O)O)/C=C/[C@@]1(O)C(/C=C/c2cc(Cl)cc(Cl)c2)=CC(=O)CC1(C)C [Compound 16] | ++ (Seeds germinated 5 to 7 days earlier than those treated with 0.3 ppm of (S)-ABA alone.) |  |
| CC(=C/C(=O)O)/C=C/[C@@]1(O)C(/C=C/c2cccc(Cl)c2)=CC(=O)CC1(C)C [Compound 17] | − |  |
| CC(=C/C(=O)O)/C=C/[C@@]1(O)C(/C=C/c2ccc(Cl)cc2)=CC(=O)CC1(C)C [Compound 18] | +++ (Seeds germinated 8 to 10 days earlier than those treated with 0.3 ppm of (S)-ABA alone.) | antagonists of (S)-ABA |

| Compound | Rating: Arabidopsis seed germination promotion activity | antagonist nature compared to (S)-ABA |
| --- | --- | --- |
| CC(=C/C(=O)O)/C=C/[C@@]1(O)C(/C=C/c2ccc(Cl)c(Cl)c2)=CC(=O)CC1(C)C [Compound 19] | ++ (Seeds germinated 5 to 7 days earlier than those treated with 0.3 ppm of (S)-ABA alone.) |  |
| CC(=C/C(=O)O)/C=C/[C@@]1(O)C(/C=C/c2cccc(F)c2)=CC(=O)CC1(C)C [Compound 20] | ++ (Seeds germinated 5 to 7 days earlier than those treated with 0.3 ppm of (S)-ABA alone.) |  |
| CC(=C/C(=O)O)/C=C/[C@@]1(O)C(/C=C/c2cccc(C(F)(F)F)c2)=CC(=O)CC1(C)C [Compound 21] | + (Seeds germinated 1 to 4 days earlier than those treated with 0.3 ppm of (S)-ABA alone.) |  |
| CC(=C/C(=O)O)/C=C/[C@@]1(O)C(/C=C/c2ccc(F)cc2F)=CC(=O)CC1(C)C [Compound 22] | ++ (Seeds germinated 5 to 7 days earlier than those treated with 0.3 ppm of (S)-ABA alone.) |  |
| CC(=C/C(=O)O)/C=C/[C@@]1(O)C(/C=C/c2cc(F)cc(F)c2)=CC(=O)CC1(C)C [Compound 24] | ++ (Seeds germinated 5 to 7 days earlier than those treated with 0.3 ppm of (S)-ABA alone.) |  |
| CC(=C/C(=O)O)/C=C/[C@@]1(O)C(/C=C/c2ccccc2C(F)(F)F)=CC(=O)CC1(C)C [Compound 25] | ++ (Seeds germinated 5 to 7 days earlier than those treated with 0.3 ppm of (S)-ABA alone.) |  |
| CC(=C/C(=O)O)/C=C/[C@@]1(O)C(/C=C/c2ccc(C(F)(F)F)cc2)=CC(=O)CC1(C)C [Compound 26] | +++ (Seeds germinated 8 to 10 days earlier than those treated with 0.3 ppm of (S)-ABA alone.) | antagonists of (S)-ABA |
| CC(=C/C(=O)O)/C=C/[C@@]1(O)C(/C=C/c2cc(C(F)(F)F)ccc2F)=CC(=O)CC1(C)C [Compound 27] | ++ (Seeds germinated 5 to 7 days earlier than those treated with 0.3 ppm of (S)-ABA alone.) |  |
| COc1ccc(C(F)(F)F)cc1/C=C/C1=CC(=O)CC(C)(C)[C@@]1(O)/C=C/C(C)=C\C(=O)O [Compound 28] | ++ (Seeds germinated 5 to 7 days earlier than those treated with 0.3 ppm of (S)-ABA alone.) |  |
| CC(=C/C(=O)O)/C=C/[C@@]1(O)C(/C=C/c2cc(F)cc(C(F)(F)F)c2)=CC(=O)CC1(C)C [Compound 29] | ++ (Seeds germinated 5 to 7 days earlier than those treated with 0.3 ppm of (S)-ABA alone.) |  |
| CC(=C/C(=O)O)/C=C/[C@@]1(O)C(/C=C/c2ccc(C(F)(F)F)cc2F)=CC(=O)CC1(C)C [Compound 30] | ++ (Seeds germinated 5 to 7 days earlier than those treated with 0.3 ppm of (S)-ABA alone.) |  |
| CC(=C/C(=O)O)/C=C/[C@@]1(O)C(/C=C/c2cccc(C(F)(F)F)c2F)=CC(=O)CC1(C)C [Compound 31] | +++ (Seeds germinated 8 to 10 days earlier than those treated with 0.3 ppm of (S)-ABA alone.) | antagonists of (S)-ABA |
| CC(=C/C(=O)O)/C=C/[C@@]1(O)C(/C=C/c2cccc(C#N)c2)=CC(=O)CC1(C)C [Compound 32] | − |  |
| CC(=C/C(=O)O)/C=C/[C@@]1(O)C(/C=C/c2ccco2)=CC(=O)CC1(C)C [Compound 33] | − |  |
| CC(=C/C(=O)O)/C=C/[C@@]1(O)C(/C=C/c2nccs2)=CC(=O)CC1(C)C [Compound 34] | − |  |
| CC(=C/C(=O)O)/C=C/[C@@]1(O)C(/C=C/c2cncs2)=CC(=O)CC1(C)C [Compound 35] | − |  |
| CC(=C/C(=O)O)/C=C/[C@@]1(O)C(/C=C/c2ccccn2)=CC(=O)CC1(C)C [Compound 36] | − |  |
| CC(=C/C(=O)O)/C=C/[C@@]1(O)C(/C=C/c2cccnc2)=CC(=O)CC1(C)C [Compound 37] | − |  |
| CC(=C/C(=O)O)/C=C/[C@@]1(O)C(/C=C/c2ccncc2)=CC(=O)CC1(C)C [Compound 38] | − |  |
